The text below walks through data of patent US7026339B2, “Inhibitors of HCV NS5B polymerase” (priority 2003, dated 2006).

The structures appear in SMILES notation. Where only a bound is given, the exact number is not on record here.

The assay concerns HuH-7 replicon cells 5–15 and 9–13 (HCV replication). Nature of the assay: Inhibition of viral replication in HuH-7 replicon cells (HCV RNA / GAPDH RNA by multiplex RT-PCR). Type of assay: cell-based. The following applies: Hepatitis C virus, 72 h; inhibiting 50% of replication; HuH-7 replicon cells, 3 days; read-out: IC50. Summed up: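 HCV and GAPDH RNA were measured by multiplex TaqMan RT-PCR (HCV 5′ untranslated region) after 3-day compound treatment at 37 °C, final 100 μM–1 μM in 1% DMSO. Cells were plated 24 h beforehand at 7×10^3/well. Read-out: HCV-to-GAPDH ratio expressed as percent control versus untreated cells.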
(In general: Replicon systems follow genome replication, usually without infectious particles.)

As usually defined, the IC50 is the concentration that gives 50% inhibition.

`CN(c1ccccc1/C=N/NC(=O)Cc1c[nH]cn1)S(=O)(=O)c1ccc(C(F)(F)F)cc1` [Compound 249, N-(2-{(E)-[(1H-imidazol-4-ylacetyl)hydrazono]methyl}phenyl)-N-methyl-4-(trifluoromethyl)benzenesulfonamide]: the half-inhibitory concentration (IC50) was under 5 µM. The value for `O=S(=O)(Cc1cccc(Cl)c1)N/N=C/c1ccccc1OS(=O)(=O)c1ccc(C(F)(F)F)cc1` [Compound 250, 2-((E)-[2-[(3-chlorobenzyl)sulfonyl]hydrazono}methyl)-phenyl 4-(trifluoromethyl)benzenesulfonate] was 5 to 50 µM; that for `O=S(=O)(Cc1ccccc1)N/N=C/c1ccccc1OS(=O)(=O)c1ccc(C(F)(F)F)cc1` [Compound 251, 2-{(E)-[2-(benzylsulfonyl)hydrazono]methyl}phenyl4-(trifluoromethyl)benzenesulfonate] was 5 to 50 µM; that for `O=S(=O)(Cc1ccc(C(F)(F)F)cc1)N/N=C/c1ccccc1OS(=O)(=O)c1ccc(C(F)(F)F)cc1` [Compound 252, 2-[(E)-(2-{[4-(trifluoromethyl)benzyl]sulfonyl}hydrazono)-methyl]phenyl 4-(trifluoromethyl)benzenesulfonate] was 5 to 50 µM. For `O=C(Cc1ccc2c(c1)OCO2)NC1CC1c1ccccc1OS(=O)(=O)c1ccc(C(F)(F)F)cc1` (centres unmarked) [Compound 253, 2-(2-{[2-(1,3-benzodioxol-5-yl)acetyl]amino}cyclopropyl)phenyl 4-(trifluoromethyl)benzenesulfonate], the IC50 is over 50 µM. With `O=C(NCc1ccccn1)Nc1ccccc1OS(=O)(=O)c1ccc(C(F)(F)F)cc1` [Compound 254, 2-({[(pyridin-2-ylmethyl)amino]carbonyl}amino)phenyl 4-(trifluoromethyl)benzenesulfonate], the IC50 is over 50 µM.

With `O=S(=O)(N/N=C/c1ccccc1OS(=O)(=O)c1ccc(C(F)(F)F)cc1)c1ccccc1` [Compound 255, 2-{(E)-[2-(phenylsulfonyl)hydrazono]methyl}phenyl4-(trifluoromethyl)benzenesulfonate], the IC50 fell in the range of 5 to 50 µM. `O=S(=O)(N/N=C/c1ccccc1OS(=O)(=O)c1ccc(C(F)(F)F)cc1)c1cccc2ccccc12` [Compound 256, 2-{(E)-[2-(1-naphthylsulfonyl)hydrazono]methyl}phenyl4-(trifluoromethyl)benzenesulfonate]: the concentration for half-maximal inhibition (IC50) fell in the range of 5 to 50 µM.
